Results from patent publication EP4603105A1, “PHARMACEUTICAL COMPOSITION CONTAINING CYCLIC COMPOUND HAVING SELECTIVE KRAS INHIBITORY EFFECT AGAINST HRAS AND NRAS” (CHUGAI SEIYAKU KABUSHIKI KAISHA, priority 2022, dated 2024).
Read-outs that look alike come from different tables or passages of the source.

Columns and labels:
[1] = molecular target: GDP-bound NRAS wild-type protein (Homo sapiens, UniProt P01111); assay: Binding to NRAS by surface plasmon resonance (SPR), KD and KD ratio to KRAS; details: ratio of KD for GDP-bound NRAS wild-type protein to KD for KRAS
GDP-bound NRAS wild-type protein, sequence (P01111 whole entry): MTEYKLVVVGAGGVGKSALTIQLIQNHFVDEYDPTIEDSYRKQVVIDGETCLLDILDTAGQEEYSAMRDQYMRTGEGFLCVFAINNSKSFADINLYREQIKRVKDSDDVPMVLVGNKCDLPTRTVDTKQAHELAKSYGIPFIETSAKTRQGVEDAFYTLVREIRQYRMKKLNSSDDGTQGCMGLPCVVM
Outline: (§1)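 Compound binding is evaluated by SPR single-cycle kinetics, with concentrations added intermittently from low to high for 75 s each. Target surfaces carry GDP-loaded biotinylated Avi-RAS at about 100–300 RU, regenerated after each cycle; temperature 30°C. A 1:1 binding model gives KD.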

HRAS wild-type protein = HRAS wild-type protein (Homo sapiens, UniProt P01112); assay: Binding to HRAS by surface plasmon resonance (SPR), KD and KD ratio to KRAS; details: ratio of KD for HRAS wild-type protein to KD for KRAS
HRAS wild-type protein, sequence (P01112 whole entry): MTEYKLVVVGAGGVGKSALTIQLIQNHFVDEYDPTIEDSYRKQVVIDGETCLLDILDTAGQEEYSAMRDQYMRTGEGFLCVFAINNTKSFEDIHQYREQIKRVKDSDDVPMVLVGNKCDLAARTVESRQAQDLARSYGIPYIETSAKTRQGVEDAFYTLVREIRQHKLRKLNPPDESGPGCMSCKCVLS
Outline: as §1

[2] = test system: human lung cancer strain NCI-H441; type: cell-based
Outline: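 Proliferation was scored by […] measured after the reagent was added to cultures kept at 37°C in 5% carbon dioxide.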

Row | Structure (SMILES) | NRAS /KRAS [1] | HRAS /KRAS (HRAS wild-type protein) | IC50 ([2]; NCI-H441 cells, 4 days, CellTiter-Glo, read-out: NCl-H441 IC50) [nM] | IC50 [2] [nM]
1 | CCC[C@H]1C(=O)N[C@@H]([C@@H](C)CC)C(=O)N(C)CC(=O)N(C)[C@H]2C/C=C\CCN(C2=O)[C@@H](Cc2ccc(C(F)(F)F)cc2)C(=O)N(C)CC(=O)N[C@@H](CCc2cc(Cl)c3c(ccn3C)c2)C(=O)N2C[C@H](OCC)C[C@H]2C(=O)NC2(CC(C)(C)C2)C(=O)N(C)[C@@H](C(CC)CC)C(=O)N(C)[C@H](C(=O)N(C)C)CC(=O)N1C [PP2896] | A (a compound having 10 or more and less than 20 is denoted as A) | A (a compound having 10 or more and less than 20 is denoted as A) | 79.3 | –
2 | CCC[C@H]1C(=O)N[C@@H]([C@@H](C)CC)C(=O)N(C)CC(=O)N(C)[C@H]2C/C=C\CCN(C2=O)[C@@H](Cc2ccc(C(F)(F)F)cc2)C(=O)N(C)CC(=O)N[C@@H](CCc2ccc3c(C)cn(C)c3c2)C(=O)N2C[C@H](OCC)C[C@H]2C(=O)NC2(CC(C)(C)C2)C(=O)N(C)[C@@H](C2CCCC2)C(=O)N(C)[C@H](C(=O)N(C)C)CC(=O)N1C [PP2897] | A (a compound having 10 or more and less than 20 is denoted as A) | B (a compound having 3 or more and less than 10 is denoted as B) | – | 10.5
3 | CCC[C@H]1C(=O)N[C@@H]([C@@H](C)CC)C(=O)N(C)CC(=O)N(C)[C@H]2C/C=C\CCN(C2=O)[C@@H](Cc2ccc(C)cc2)C(=O)N(C)CC(=O)N[C@@H](CCc2cc(Cl)c3c(ccn3C)c2)C(=O)N2C[C@H](OCC)C[C@H]2C(=O)NC2(CC(C)(C)C2)C(=O)N(C)[C@@H](C(CC)CC)C(=O)N(C)[C@H](C(=O)N(C)C)CC(=O)N1C [PP2898] | A (a compound having 10 or more and less than 20 is denoted as A) | A (a compound having 10 or more and less than 20 is denoted as A) | – | 98.1
4 | CCC[C@H]1C(=O)N[C@@H]([C@@H](C)CC)C(=O)N(C)CC(=O)N(C)[C@H]2C/C=C\CCN(C2=O)[C@@H](Cc2ccc(C)cc2)C(=O)N(C)CC(=O)N[C@@H](CCc2ccc3c(C)cn(C)c3c2)C(=O)N2C[C@H](OCC)C[C@H]2C(=O)NC2(CC(C)(C)C2)C(=O)N(C)[C@@H](C2CCCC2)C(=O)N(C)[C@H](C(=O)N(C)C)CC(=O)N1C [PP2899] | A (a compound having 10 or more and less than 20 is denoted as A) | B (a compound having 3 or more and less than 10 is denoted as B) | – | 18.8
5 | CCC[C@H]1C(=O)N[C@@H]([C@@H](C)CC)C(=O)N(C)CC(=O)N(C)[C@H]2C/C=C\CCN(C2=O)[C@@H](Cc2ccc(C(F)(F)F)cc2)C(=O)N(C)CC(=O)N[C@@H](CCc2ccc3sc(C)c(C)c3c2)C(=O)N2C[C@H](OCC)C[C@H]2C(=O)NC2(CC(C)(C)C2)C(=O)N(C)[C@@H](C(CC)CC)C(=O)N(C)[C@H](C(=O)N(C)C)CC(=O)N1C [PP2900] | AA (a compound having 20 or more is denoted as AA) | A (a compound having 10 or more and less than 20 is denoted as A) | – | 14.5
6 | CCC[C@H]1C(=O)N[C@@H]([C@@H](C)CC)C(=O)N(C)CC(=O)N(C)[C@H]2C/C=C\CCN(C2=O)[C@@H](Cc2ccc(C(F)(F)F)cc2)C(=O)N(C)CC(=O)N[C@@H](CCc2ccc3ccn(C)c3c2)C(=O)N2C[C@H](OCC)C[C@H]2C(=O)NC2(CC(C)(C)C2)C(=O)N(C)[C@@H](C2CCCC2)C(=O)N(C)[C@H](C(=O)N(C)C)CC(=O)N1C [PP2901] | A (a compound having 10 or more and less than 20 is denoted as A) | A (a compound having 10 or more and less than 20 is denoted as A) | – | 86.5
7 | CCC[C@H]1C(=O)N[C@@H]([C@@H](C)CC)C(=O)N(C)CC(=O)N(C)[C@H]2C/C=C\CCN(C2=O)[C@@H](Cc2ccc(C)cc2)C(=O)N(C)CC(=O)N[C@@H](CCc2ccc3sc(C)c(C)c3c2)C(=O)N2C[C@H](OCC)C[C@H]2C(=O)NC2(CC(C)(C)C2)C(=O)N(C)[C@@H](C(CC)CC)C(=O)N(C)[C@H](C(=O)N(C)C)CC(=O)N1C [PP2902] | AA (a compound having 20 or more is denoted as AA) | A (a compound having 10 or more and less than 20 is denoted as A) | – | 56.3
8 | C#CC[C@H]1C(=O)N[C@@H]([C@@H](C)CC)C(=O)N(C)CC(=O)N(C)[C@H]2C/C=C\CCN(C2=O)[C@@H](Cc2ccc(C(F)(F)F)cc2)C(=O)N(C)CC(=O)N[C@@H](CCc2ccc(C(F)(F)F)c(OC)c2)C(=O)N2CCOC[C@H]2C(=O)NC2(CC(C)(C)C2)C(=O)N(C)[C@@H](C2CCCC2)C(=O)N(C)[C@H](C(=O)N(C)C)CC(=O)N1C [PP2905] | AA (a compound having 20 or more is denoted as AA) | A (a compound having 10 or more and less than 20 is denoted as A) | – | 35.2
9 | CC[C@H](C)[C@@H]1NC(=O)[C@H](COC)N(C)C(=O)C[C@@H](C(=O)N(C)C)N(C)C(=O)[C@H](C2CCCC2)N(C)C(=O)C2(CC(C)(C)C2)NC(=O)[C@@H]2CCCCN2C(=O)[C@H](CCc2cc(F)c(C(F)(F)F)c(F)c2)NC(=O)CN(C)C(=O)[C@H](Cc2ccc(C(F)(F)F)cc2)N2CC/C=C\C[C@@H](C2=O)N(C)C(=O)CN(C)C1=O [PP2907] | AA (a compound having 20 or more is denoted as AA) | A (a compound having 10 or more and less than 20 is denoted as A) | – | 46.3
10 | CCC[C@H]1C(=O)N[C@@H]([C@@H](C)CC)C(=O)N(C)CC(=O)N(C)[C@H]2C/C=C\CCN(C2=O)[C@@H](Cc2ccc(C(F)(F)F)cc2)C(=O)N(C)CC(=O)N[C@@H](CCc2ccc3c(C)cn(C)c3c2)C(=O)N2C[C@H](OCC)C[C@H]2C(=O)NC2(CC(C)(C)C2)C(=O)N(C)[C@@H](C(CC)CC)C(=O)N(C)[C@H](C(=O)N(C)C)CC(=O)N1C [PP2908] | AA (a compound having 20 or more is denoted as AA) | A (a compound having 10 or more and less than 20 is denoted as A) | – | 20.2
11 | C#CC[C@H]1C(=O)N[C@@H]([C@@H](C)CC)C(=O)N(C)CC(=O)N(C)[C@H]2C/C=C\CCN(C2=O)[C@@H](Cc2ccc(C(F)(F)F)cc2)C(=O)N(C)CC(=O)N[C@@H](CCc2ccc(C(F)(F)F)c(OC)c2)C(=O)N2CC[C@H]2C(=O)NC2(CC(C)(C)C2)C(=O)N(C)[C@@H](C2CCCC2)C(=O)N(C)[C@H](C(=O)N(C)C)CC(=O)N1C [PP2909] | B (a compound having 3 or more and less than 10 is denoted as B) | B (a compound having 3 or more and less than 10 is denoted as B) | – | 61.3
12 | C#CC[C@H]1C(=O)N[C@@H]([C@@H](C)CC)C(=O)N(C)CC(=O)N(C)[C@H]2C/C=C\CCN(C2=O)[C@@H](Cc2ccc(C(F)(F)F)cc2)C(=O)N(C)CC(=O)N[C@@H](CCc2ccc(C(F)(F)F)c(OC)c2)C(=O)N2CC[C@H]2C(=O)NC2(CCC2)C(=O)N(C)[C@@H](C2CCCC2)C(=O)N(C)[C@H](C(=O)N(C)C)CC(=O)N1C [PP2911] | A (a compound having 10 or more and less than 20 is denoted as A) | B (a compound having 3 or more and less than 10 is denoted as B) | – | 64.8
